# Results from ChEMBL document CHEMBL3351804, “Development of 2-aryl substituted quinazolin-4(3H)-one, pyrido[4,3-d]pyrimidin-4(3H)-one and pyrido[2,3-d]pyrimidin-4(3H)-one derivatives as microsomal prostaglandin E(2) synthase-1 inhibitors” (Bioorg Med Chem Lett, 2014).
# Key:
# Prostaglandin E synthase [1] = biological target: T1, Prostaglandin E synthase (Homo sapiens, UniProt O14684); assay: Inhibition of human recombinant mPGES-1 expressed in CHO cells using PGH2 as substrate incubated for 10 mins prior to substrate addition measured after 1 min
# T1 sequence (O14684 whole entry): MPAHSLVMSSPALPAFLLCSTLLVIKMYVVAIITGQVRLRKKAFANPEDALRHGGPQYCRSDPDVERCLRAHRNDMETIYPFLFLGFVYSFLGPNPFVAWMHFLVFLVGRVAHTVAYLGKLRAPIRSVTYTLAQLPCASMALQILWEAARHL
# Prostaglandin E synthase [2] = biological target: T1, Prostaglandin E synthase; assay: Inhibition of mPGES-1 in human A549 cells assessed as inhibition of IL-1beta-induced PGE2 production incubated for 30 mins prior to IL-1beta challenge measured after 18 to 24 hrs; assay type: cell-based
# [3] = biological target: Prostaglandin G/H synthase 1 (Homo sapiens) (UniProt P23219); assay: Inhibition of COX1 in human U937 cells at 10 uM; assay type: cell-based; details: U-937
# Chain of Prostaglandin G/H synthase 1 (Homo sapiens) (P23219 whole entry): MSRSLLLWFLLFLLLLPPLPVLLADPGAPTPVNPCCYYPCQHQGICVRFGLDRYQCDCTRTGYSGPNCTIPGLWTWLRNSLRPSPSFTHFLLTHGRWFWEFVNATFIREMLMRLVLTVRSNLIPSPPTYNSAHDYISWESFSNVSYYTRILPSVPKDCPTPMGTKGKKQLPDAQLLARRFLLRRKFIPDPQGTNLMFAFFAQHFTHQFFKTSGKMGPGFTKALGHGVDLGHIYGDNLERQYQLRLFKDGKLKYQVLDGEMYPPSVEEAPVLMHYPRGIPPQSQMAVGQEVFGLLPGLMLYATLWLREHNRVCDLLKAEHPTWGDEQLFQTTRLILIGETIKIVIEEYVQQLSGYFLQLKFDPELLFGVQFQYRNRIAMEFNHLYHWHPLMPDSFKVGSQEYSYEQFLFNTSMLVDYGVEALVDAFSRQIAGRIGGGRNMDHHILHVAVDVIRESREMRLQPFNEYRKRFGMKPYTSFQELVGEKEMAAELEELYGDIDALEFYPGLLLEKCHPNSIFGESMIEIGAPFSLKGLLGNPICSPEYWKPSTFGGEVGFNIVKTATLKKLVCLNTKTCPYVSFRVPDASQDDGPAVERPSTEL
# [4] = biological target: Prostaglandin E synthase 2 (Homo sapiens) (UniProt Q9H7Z7); assay: Inhibition of recombinant mPGES-2 (unknown origin) at 10 uM
# Chain of Prostaglandin E synthase 2 (Homo sapiens) (Q9H7Z7 whole entry): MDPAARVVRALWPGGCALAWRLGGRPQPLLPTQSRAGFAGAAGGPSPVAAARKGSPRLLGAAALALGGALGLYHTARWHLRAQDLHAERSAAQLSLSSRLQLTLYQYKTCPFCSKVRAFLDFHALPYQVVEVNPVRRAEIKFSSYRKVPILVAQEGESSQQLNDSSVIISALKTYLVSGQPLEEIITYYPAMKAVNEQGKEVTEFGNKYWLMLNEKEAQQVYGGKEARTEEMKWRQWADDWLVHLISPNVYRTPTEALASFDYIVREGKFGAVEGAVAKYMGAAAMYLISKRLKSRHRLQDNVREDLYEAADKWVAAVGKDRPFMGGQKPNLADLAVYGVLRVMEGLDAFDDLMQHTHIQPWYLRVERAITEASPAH
# [5] = biological target: Hematopoietic prostaglandin D synthase (Homo sapiens) (UniProt O60760); assay: Inhibition of recombinant PGDS (unknown origin) at 10 uM
# Chain of Hematopoietic prostaglandin D synthase (Homo sapiens) (O60760 whole entry): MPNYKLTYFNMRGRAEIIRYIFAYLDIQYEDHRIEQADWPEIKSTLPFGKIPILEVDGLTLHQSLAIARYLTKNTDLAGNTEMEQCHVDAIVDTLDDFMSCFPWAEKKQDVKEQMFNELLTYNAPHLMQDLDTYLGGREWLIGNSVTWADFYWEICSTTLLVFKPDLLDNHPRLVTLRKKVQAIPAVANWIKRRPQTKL
# [6] = biological target: T2, Thromboxane-A synthase (Homo sapiens) (UniProt P24557); assay: Inhibition of recombinant TXAS (unknown origin) at 10 uM
# T2 sequence (whole entry): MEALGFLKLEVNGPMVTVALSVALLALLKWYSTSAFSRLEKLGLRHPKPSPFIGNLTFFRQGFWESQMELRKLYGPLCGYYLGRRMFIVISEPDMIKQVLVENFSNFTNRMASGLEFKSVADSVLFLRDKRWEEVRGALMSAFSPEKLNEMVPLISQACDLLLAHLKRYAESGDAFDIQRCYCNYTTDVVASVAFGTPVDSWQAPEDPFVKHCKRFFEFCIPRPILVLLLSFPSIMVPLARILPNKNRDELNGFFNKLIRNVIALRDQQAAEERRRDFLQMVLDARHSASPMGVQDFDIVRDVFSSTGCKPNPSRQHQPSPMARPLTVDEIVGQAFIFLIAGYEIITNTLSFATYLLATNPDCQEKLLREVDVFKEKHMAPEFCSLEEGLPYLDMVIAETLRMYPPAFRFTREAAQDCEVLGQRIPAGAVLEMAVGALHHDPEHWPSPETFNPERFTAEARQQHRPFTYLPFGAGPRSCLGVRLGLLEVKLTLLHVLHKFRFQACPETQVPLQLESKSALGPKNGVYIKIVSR
# [7] = biological target: T3, Prostacyclin synthase (Homo sapiens) (UniProt Q16647); assay: Inhibition of recombinant PGIS (unknown origin) at 10 uM
# T3 sequence (whole entry): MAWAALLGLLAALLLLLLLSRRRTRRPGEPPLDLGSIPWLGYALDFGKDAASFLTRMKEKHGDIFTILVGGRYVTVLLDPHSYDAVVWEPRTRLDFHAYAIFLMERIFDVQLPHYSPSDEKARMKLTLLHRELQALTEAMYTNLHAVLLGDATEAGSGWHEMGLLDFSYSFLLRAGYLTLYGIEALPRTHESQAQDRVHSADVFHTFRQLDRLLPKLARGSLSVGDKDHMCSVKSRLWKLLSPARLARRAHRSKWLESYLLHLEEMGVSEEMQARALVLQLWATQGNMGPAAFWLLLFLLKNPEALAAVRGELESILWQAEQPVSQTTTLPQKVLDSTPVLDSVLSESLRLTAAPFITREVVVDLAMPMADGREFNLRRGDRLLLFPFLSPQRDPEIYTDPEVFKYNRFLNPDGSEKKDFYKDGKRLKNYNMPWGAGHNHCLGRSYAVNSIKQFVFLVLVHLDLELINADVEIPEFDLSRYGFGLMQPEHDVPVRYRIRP
# [8] = biological target: Prostaglandin F2-alpha receptor (Homo sapiens) (UniProt P43088); assay: Induction of recombinant PGF2-alpha (unknown origin) at 10 uM
# Chain of Prostaglandin F2-alpha receptor (Homo sapiens) (P43088 whole entry): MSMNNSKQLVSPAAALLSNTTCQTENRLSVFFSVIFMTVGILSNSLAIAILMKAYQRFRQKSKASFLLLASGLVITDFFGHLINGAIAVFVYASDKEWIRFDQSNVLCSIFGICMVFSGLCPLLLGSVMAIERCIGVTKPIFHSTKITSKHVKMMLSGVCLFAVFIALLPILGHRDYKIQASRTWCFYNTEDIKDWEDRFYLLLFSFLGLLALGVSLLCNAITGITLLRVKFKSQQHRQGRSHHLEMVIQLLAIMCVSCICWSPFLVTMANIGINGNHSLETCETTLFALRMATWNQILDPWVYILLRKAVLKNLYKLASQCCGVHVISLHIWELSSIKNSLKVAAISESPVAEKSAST
# [9] = biological target: T4, Cytosolic phospholipase A2 (Homo sapiens) (UniProt P47712); assay: Inhibition of cPLA2 (unknown origin) at 10 uM
# T4 sequence (whole entry): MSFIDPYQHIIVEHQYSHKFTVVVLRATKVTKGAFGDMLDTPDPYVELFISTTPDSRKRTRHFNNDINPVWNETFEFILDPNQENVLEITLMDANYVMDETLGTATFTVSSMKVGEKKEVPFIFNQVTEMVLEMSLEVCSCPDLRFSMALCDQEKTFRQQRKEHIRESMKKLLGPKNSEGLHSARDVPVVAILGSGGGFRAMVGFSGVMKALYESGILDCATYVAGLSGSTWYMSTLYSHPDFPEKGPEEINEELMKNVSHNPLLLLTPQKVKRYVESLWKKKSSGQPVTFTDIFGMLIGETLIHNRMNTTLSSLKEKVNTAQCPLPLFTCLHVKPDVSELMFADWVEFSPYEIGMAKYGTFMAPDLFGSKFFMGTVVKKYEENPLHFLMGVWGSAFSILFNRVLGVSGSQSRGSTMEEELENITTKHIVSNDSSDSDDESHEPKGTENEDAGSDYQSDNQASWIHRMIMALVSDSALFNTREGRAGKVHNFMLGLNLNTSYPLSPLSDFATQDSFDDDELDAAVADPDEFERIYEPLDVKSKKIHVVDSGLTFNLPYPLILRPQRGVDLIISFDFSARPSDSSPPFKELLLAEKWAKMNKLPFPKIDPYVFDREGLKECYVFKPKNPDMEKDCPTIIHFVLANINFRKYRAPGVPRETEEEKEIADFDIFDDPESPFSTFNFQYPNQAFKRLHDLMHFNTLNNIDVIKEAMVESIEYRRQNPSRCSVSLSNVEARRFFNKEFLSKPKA
# [10] = Inhibition of guinea pig recombinant mPGES-1; parameters: species or system Cavia porcellus
# Prostaglandin E synthase [11] = biological target: T5, Prostaglandin E synthase (Canis lupus familiaris, UniProt A0SYQ0); assay: Inhibition of mPGES-1 in dog whole blood assessed as inhibition of LPS-induced PGE2 production after overnight incubation
# T5 sequence (A0SYQ0 whole entry): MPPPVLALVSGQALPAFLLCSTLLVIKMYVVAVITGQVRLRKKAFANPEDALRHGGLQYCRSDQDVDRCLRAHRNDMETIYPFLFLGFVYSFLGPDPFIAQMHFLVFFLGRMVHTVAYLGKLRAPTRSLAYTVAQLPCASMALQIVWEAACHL
# [12] = AUClast in Sprague-Dawley rat at 10 mg/kg, po; assay type: ADME, organism-based; parameters: time 0 - last, dose 10 mg/kg, route oral; details: plasma
# [13] = Tmax in Sprague-Dawley rat at 10 mg/kg, po; assay type: ADME, organism-based; parameters: dose 10 mg/kg, route oral; details: in vivo
# [14] = Stability in human liver microsomes assessed as compound remaining after 60 mins; assay type: ADME; details: read-out: Stability
# [15] = Stability in guinea pig liver microsomes assessed as compound remaining after 60 mins; assay type: ADME, Cavia porcellus; details: read-out: Stability
smiles,measurement,setting,value
CC(C)C(=O)NCc1ccc(Cl)c(-c2nc3cc(-c4ccc(C(F)(F)F)cc4)ncc3c(=O)[nH]2)c1,IC50,Prostaglandin E synthase [1],5 nM
same,IC50,Prostaglandin E synthase [2],5 nM
same,inhibition,[3],2.74%
same,inhibition,[4],0.02%
same,inhibition,[5],18.7%
same,inhibition,[6],10.5%
same,inhibition,[7],0.67%
same,Activity,[8],186%
same,inhibition,[9],12.1%
same,IC50,[10],12 nM
same,IC50,Prostaglandin E synthase [11],154 nM
same,AUC(0-t),[12],1230 ng·h/mL
same,Tmax,[13],24 h
same,remaining at 1 h,[14],91%
same,remaining at 1 h,[15],87%
